Square brackets hold non-standard residues; d marks the D form. Peptide text beside a SMILES is read from it. * marks the point of attachment. 5FAM = O=C1OC2(c3ccc(O)cc3Oc3cc(O)ccc32)c2ccc(C(=O)*)cc21
Experiments:
Aβ1–42 monomers = target: T1, Aβ1–42 monomers (Homo sapiens, UniProt P05067); experiment: ELISA, compound binding to Aβ1–42 peptide film (predominantly monomers); conditions: 10 µg/ml compound; for binding value, binding Aβ1–42 monomers: optical density after pNPP incubation
T1 construct: Aβ1–42 peptide film was prepared from lyophilized powder (Bachem); purchased Bachem
Protocol: (§1) Aβ1–42 peptide film was prepared from lyophilized powder (Bachem). The powder was reconstituted in HFIP to a final concentration of 1 mM, sonicated for 15 min at room temperature (RT), agitated overnight (ON), and aliquoted into non-siliconized microcentrifuge tubes (12 µl corresponding to 55 µg). The HFIP was evaporated under a stream of argon. The resulting peptide film was vacuum dried for 10 min and stored at -80°C. For direct use as peptide film, an aliquot of Aβ1–42 peptide film was reconstituted with 0.54% dimethylsulphoxide (DMSO) in phosphate buffered saline (PBS) to obtain a final concentration of 10 µg/ml and then used for the ELISA as described below. To prepare fibrils, 55 µg aliquot of peptide film was dissolved in 55 µl of 50 mM Tris-HCl, pH 7.4 and incubated at 37°C for five days. Next, the sample was centrifuged (10’000 rpm for 5 min) and the pellet was diluted in 50 mM Tris-HCl, pH 7.4.
(§2) Aβ1–42 peptide preparations were diluted in 0.05 M bicarbonate-carbonate buffer pH 9.6, to the final concentration of 10 µg/ml and coated onto ELISA plates (MaxiSorp, Nunc). After blocking (PBS; 0.05% Tween; 1% BSA), plates were incubated with 2- or 3-fold dilutions of D-compounds (starting concentration: 10 µg/ml) and incubated for 2 h at 37°C. Plates were then washed and incubated for 2 h at 37°C with the detection antibody Rabbit-a-fluorescein isothiocyanate-AP (Sigma; 1∶10’000 dilution) followed by the incubation for 2.5 h at room temperature (RT) with 1 mg/ml of phosphatase substrate (pNPP, Sigma). The absorbance signal was read at 405 nm wavelength using a Tecan plate reader (Tecan Group Lt, Männedorf, Switzerland).
(§3) ELISA plates (MaxiSorp, Nunc) were coated with anti-Aβ antibody 6E10 (Covance) at a concentration of 5 µg/ml. Either monomeric Aβ1–42 peptide film (mainly monomeric) or Aβ1–42 fibrils, which were prepared as described above, were diluted in PBS to the final concentration 10 µg/ml and mixed with 10-fold dilutions of D-peptide compounds in Eppendorf tubes (starting concentration of D-peptide compounds: 10 µg/ml). The tubes were incubated for 2 h at 37°C. Next, samples were distributed onto the ELISA plate and kept for 2 h at 37°C. Plates were washed and incubated for 2 h at 37°C with the detection antibody Rabbit-a-fluorescein isothiocyanate-AP (Sigma; 1∶10′000 dilution) following the incubation overnight (ON) at RT with 1 mg/ml of phosphatase substrate (pNPP, Sigma). The absorbance signal was read at 405 nm wavelength using the Tecan plate reader (Tecan Group Ltd, Männedorf, Switzerland).
(§4) To verify the SPR results, ELISA was employed to assay the interaction of the ACI-80 derivatives ACI-80-Kϕ, ACI-81-Kϕ, ACI-82-Kϕ, ACI-83-Kϕ, ACI-84-Kϕ, ACI-85-Kϕ, ACI-86-Kϕ, ACI-87-Kϕ, [^19F]-ACI-87-Kϕ, ACI-88-Kϕ, [^19F]-ACI-88-Kϕ, ACI-89-Kϕ, [^19F]-ACI-89-Kϕ) with Aβ1–42 fibrils and Aβ peptide film in solution containing mostly monomers and smaller oligomers (Table 4). To avoid any bias by possible conformational influences the ELISA has been carried out in two versions, once with immobilized antibody and once with immobilized Aβ1–42 as described in the methods section. Both assays yielded similar results and confirmed each other. […] Panels A and B in Figure 2 show the results for binding to Aβ1–42 fibrils and panels C and D in Figure 2 show the results for binding to freshly prepared Aβ1–42 peptide film, which contains mostly monomeric Aβ. In Table 4, the performance of the peptides is expressed relative to that of ACI-80-Kϕ.

Aβ1–42 fibrils [1] = target: T2, Aβ1–42 fibrils (Homo sapiens, UniProt P05067); experiment: ELISA, compound binding to Aβ1–42 fibrils; conditions: for binding value, binding Aβ1–42 fibrils: optical density after pNPP incubation
T2 construct: Aβ1–42 was dissolved in hexafluoroisopropanol (HFIP)
Protocol: as §1, §2, §3, §4

[2] = Analysis of ACI-80 stability: N-terminal glutamine vs pyroglutamate content by HPLC/ESI-MS; assay type: physicochemical; conditions: solid, freshly synthesized and untreated, HPLC/ESI-MS
Protocol: In solution, N-terminal glutamine peptides such as D1 are prone to convert into N-terminal pyroglutamate species: Gln-SHYRHISPAQV → Pyr-SHYRHISPAQV. Therefore, the stability of solid ACI-80, solid ACI-80-Kϕ (ϕ: fluorescein isothiocyanate, covalently linked to the peptide via a lysine (K)) and [^127I]-ACI-80 in solution was investigated by JPT Peptide Technologies GmbH, Berlin, Germany using HPLC/ESI-MS whereby the relative content of N-terminal Gln peptide and N-terminal Pyr peptide was assessed.
An important observation during initial compound stability characterization experiments was the partial conversion of the N-terminal glutamine of [^127I]-ACI-80 into pyro-glutamate. It is known that peptides with an N-terminal glutamine are prone to conversion of this residue into a pyroglutamate. Therefore, the composition of freshly synthesized and untreated ACI-80 and ACI-80-Kϕ as well as [^127I]-ACI-80 after iodination were investigated. […] It was observed that freshly synthesized ACI-80 and ACI-80-Kϕ contained only minor fractions of pyroglutamic acid while about one third of [^127I]-ACI-80 in solution already converted into N-terminal pyroglutamate species.

Aβ1–42 fibrils [3] = target: T2, Aβ1–42 fibrils; experiment: SPR single cycle experiments (Biacore T100), heterogeneous ligand model; assay type: binding; design: Rmax1 / Rmax2 / k off2: unit not given here; conditions: PBS pH 7.4, 25°C, 30 µl/min
Protocol: Aβ1–42 fibrils were prepared as described above. Thereafter, the sample was centrifuged for 10 min at 16000×g, the supernatant discarded and this procedure repeated for 3 times. Formation of fibrils was confirmed by a standard Thioflavin-T fluorescence assay. Aβ1–42 fibrils were covalently immobilized on a CM5 sensor chip via amine coupling. Prior to immobilization of Aβ1–42 fibrils the sample was centrifuged and fibrils resuspended in 10 mM sodium acetate buffer pH 4.0. Flow cell sensor surfaces were activated with a freshly prepared solution of 0.2 M 1-ethyl–3-(3-dimethylaminopropyl)-carbodiimide (EDC) and 0.05 M N-hydroxysuccinimide (NHS) at a constant flow rate of 10 µl/min for 420 s. Aβ1–42 fibrils (∼ 110 µM monomeric Aβ1–42) were injected for 600 s with a flow rate of 10 µl/min. Deactivation of the surface was performed by injection of 1 M ethanolamine-HCl pH 8.5 at the same flow rate and duration as in the activation step. In the reference cells the deactivation step was performed directly after the activation step. All SPR experiments were performed on a Biacore T100 system with series S CM5 sensor chips at 25°C. The system was run with the Biacore T100 Control Software Version 1.1.1. PBS (10 mM sodium phosphate buffer pH 7.4, 137 mM NaCl, 2.7 mM KCl) was chosen as running buffer (as previously during fibril formation) in order to minimize alterations of fibril organization. All buffers were sterile filtered (0.22 µm). After each docking of a sensor chip the detector was normalized with BIAnormalizing solution (70% glycerol, GE Healthcare) to compensate for slight differences in detector responses of individual sensor chips. For all interaction analyses the Type 1 reagent rack was used. Siliconized sample vials were used with their corresponding rubber caps (Type 2, GE Healthcare) to minimize evaporation effects. Throughout all runs the flow rate was set to 30 µl/min. All interaction studies were performed in single-cycle mode. Here, five different concentrations of analyte were passed through a reference cell and subsequently through flow cells with immobilized ligand within the same binding cycle for 60 seconds, starting with the lowest concentration. Successive injections were performed in the order of increasing concentrations. Each following concentration was a fivefold increase of the previous. The lowest analyte concentration was chosen to be 100 nM and therefore the following were 500, 2500, 12500 and 62500 nM. Biacore data were evaluated using BiaEvaluation 4.1.1 (GE Healthcare) and Biacore T100 Evaluation Software (GE Healthcare). Obtained binding data with compounds were double referenced. This was achieved by collecting the data in dual-channel mode with a reference flow cell connected upstream of the flow cell with immobilized Aβ1–42 fibrils and the subtraction of the obtained binding responses with a blank buffer injection (PBS).

[4] = target: T3, Aβ plaques in brain sections of transgenic APP (V717I) x PS1 (A246E) mice (Homo sapiens, UniProt P05067); experiment: Ex vivo staining of mouse brain slices by FITC labeled compounds
T3 construct: triple image overlay of respective stains reveal that the ϕ-compounds identify plaques; from tissue; host or cells: brain cryosections of APP (V717I) x PS1 (A246E) transgenic mice
Protocol: In vitro tissue section staining was performed according to previously described protocols with slight modifications. Mouse brains were obtained from male transgenic (tg) APP (London mutation V717l) x PS1 (A246E) mice aged 13–21 months and from female wild type (wt) mice aged 9–10 months. The mice were anesthetized and transcardially perfused with saline. The brains were removed and snap frozen. 10 µm thick sagittal cryostat sections through the whole mouse brain were produced and mounted onto glass slides. ϕ-labeled compounds were applied to investigate binding. Thus, the slides were thawed, washed in PBS and fixed in 4% paraformaldehyde (20 min at RT) just before incubation with ϕ-labeled compounds. One series of sections was treated only with fluorescent compounds (0.01 mg/ml, incubation time 2 h) while another series of sections were incubated with anti-Aβ antibody 6E10 at 1∶500 dilution (SIG-39320, Covance; final antibody concentration was 2 µg/ml) in addition to ϕ-labeled compounds (0.01 mg/ml). The slices were washed in PBS. The sections incubated with ϕ-labeled compound and 6E10 antibody were further incubated for 2 h at RT with Goat-anti-Mouse IgG1– AlexaFluor 555 (A21127, Invitrogen, 1∶1000 dilution) and washed with PBS. Finally, all sections were counterstained with 4’–6-Diamidino-2-phenylindole (DAPI, 32670, Sigma, incubation 5 min at RT) for the visualization of cell nuclei. The slides were mounted using Prolong Gold Antifade mounting medium (P36930, Invitrogen) and coverslipped.
The tissues were analyzed using a fluorescent Zeiss Axioscope 2 Plus microscope using the AxioVision 4 image analysis software.
A further series of slices was stained using a primary anti-fluorescein isothiocyanate antibody combined with alkaline phosphatase reaction for visualization of ϕ-labeled peptides. Briefly, the sections were treated with blocking solution (10% normal goat serum (NGS), 0.25% Triton X-100 in PBS for 1 h at RT) and incubated with primary antibody (rabbit-anti-FITC; Invitrogen) at a dilution of 1∶500. The sections were then washed and incubated for 2 h at RT with the secondary antibody goat-anti-rabbit-alkaline phosphatase (Sigma) at a dilution of 1∶100. After washing, the slides were incubated with BCIP/NBT substrate (Sigma) for 3 min, washed, dehydrated and mounted using Eukitt mounting medium.

[5] = average of two or three experiments
[6] = 10 µg/ml compound, average of two or three experiments

Compound | % binding relative to ACI-80-Kϕ, Aβ1–42 monomers (Aβ1–42 monomers; ACI-80-Kϕ = 100) [%] | binding value, binding Aβ1–42 monomers (Aβ1–42 monomers; [5]) | ELISA binding to Aβ1–42 (Aβ1–42 fibrils [1]) | % binding relative to ACI-80-Kϕ, Aβ1–42 fibrils (Aβ1–42 fibrils [1]; 10 µg/ml compound, ACI-80-Kϕ = 100) [%] | binding value, binding Aβ1–42 fibrils (Aβ1–42 fibrils [1]; [6]) | Identified amino acid at the N-terminal position: glutamine ([2]; relative content of N-terminal Gln peptide) [%] | Identified amino acid at the N-terminal position: pyroglutamate ([2]; relative content of N-terminal Pyr peptide) [%] | Rmax2 (Aβ1–42 fibrils [3]) | k off1 (Aβ1–42 fibrils [3]) | k off2 (Aβ1–42 fibrils [3]) | k on1 (Aβ1–42 fibrils [3]) | k on2 (Aβ1–42 fibrils [3]) | Rmax1 (Aβ1–42 fibrils [3]; global fit of three lowest responding concentrations) | binding value, binding Aβ1–42 monomers (Aβ1–42 monomers; value of one single experiment only) | staining / recognition of Aβ plaques ([4]; 0.01 mg/ml ϕ-labeled compound, 2 h, 10 µm cryostat sections, fluorescence microscopy) | overlay with 6E10 anti-Aβ staining ([4]; co-staining with 6E10 (2 µg/ml) and DAPI, triple overlay) | staining pattern ([4]; fluorescence microscopy) | binding value, binding Aβ1–42 fibrils (Aβ1–42 fibrils [1]; 10 µg/ml compound, value of one single experiment only)
ZSFYRHISPAQVKϕ [ACI-84-Kϕ, ϕ-labeled ACI-80 derivative, Q1Z and H3F] | 63 | 0.31 | reduced | 64 | 0.58 |  |  |  |  |  |  |  |  |  |  |  |  | 
CC[C@@H](C)[C@@H](NC(=O)[C@@H](Cc1c[nH]cn1)NC(=O)[C@@H](CCCNC(=N)N)NC(=O)[C@@H](Cc1ccc(O)cc1)NC(=O)[C@@H](Cc1c[nH]cn1)NC(=O)[C@@H](CO)NC(=O)[C@H](N)CCC(N)=O)C(=O)N[C@H](CO)C(=O)N1CCC[C@@H]1C(=O)N[C@H](C)C(=O)N[C@H](CCC(N)=O)C(=O)N[C@@H](C(=O)N[C@H](CCCCNC(=O)c1ccc2c(c1)C(=O)OC21c2ccc(O)cc2Oc2cc(O)ccc21)C(=O)O)C(C)C [ACI-80-Kϕ] (H-[dQ][dS][dH][dY][dR][dH][dI][dS][dP][dA][dQ][dV][dK](5FAM)-OH; C-terminus assumed) |  | 0.49 |  |  | 0.90 | >94.4 | <5.6 | 43.7 | 0.0252 | 1.58 | 469 | 1.37e4 | 12.2 |  |  |  |  | 
PSHYRHISPAQKK[^19F]ϕ [[^19F]-ACI-89-Kϕ, fluorinated ϕ-labeled ACI-89] |  |  | bound well to Aβ1–42 fibrils |  |  |  |  |  |  |  |  |  |  | *1.19 | readily recognized amyloid plaques | good overlap with 6E10 Aβ staining | more diffuse and comparable to the staining of 6E10 Aβ antibody | *1.86

— article PMC3404088, “Development of a Small D-Enantiomeric Alzheimer’s Amyloid-β Binding Peptide Ligand for Future In Vivo Imaging Applications” (PLoS ONE, 2012)
